# Active and inactive are the calls of the source.
# Columns and labels:
# [1] = biological target: DNA dC->dU-editing enzyme APOBEC-3G (Homo sapiens, UniProt Q9HC16); assay type: functional;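 note: Dose-response counterscreen measuring inhibition of APOBEC3G DNA deaminase activity, run while confirming APOBEC3A inhibitors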
# [2] = biological target: DNA dC->dU-editing enzyme APOBEC-3A (Homo sapiens, UniProt P31941); assay: Dose Response confirmation of small molecule APOBEC3A DNA Deaminase Inhibitors via a fluorescence-based single-stranded DNA deaminase assay. [Related pubchem assays (depositor defined):AID493011, AID493024]; assay type: functional
# Chain of DNA dC->dU-editing enzyme APOBEC-3A (P31941 whole entry, the tested form may be a part): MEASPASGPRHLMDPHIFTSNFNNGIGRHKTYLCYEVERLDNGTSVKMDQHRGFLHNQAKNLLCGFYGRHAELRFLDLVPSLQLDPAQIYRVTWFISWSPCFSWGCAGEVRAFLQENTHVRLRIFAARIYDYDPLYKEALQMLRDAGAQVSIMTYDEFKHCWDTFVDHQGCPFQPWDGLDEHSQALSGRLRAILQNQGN
# [3] = blockers of HIV-1 ZM109 envelope-driven cell-cell fusion – HeLa effector, CEM target cells, luciferase, cherry-pick, dose response (AID 652058); assay type: functional, cell-based;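 note: luciferase signal from HIV-1 Env mediated cell-cell fusion of effector and target cells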
# [4] = reduction of Shn3 3'UTR-driven luciferase in osteoblasts – cell-based, Clone20 osteoblasts, firefly luciferase, cherry-picked, dose response (AID 624132); assay type: functional;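 note: firefly luciferase luminescence from reporter carrying the Shn3 3'UTR in osteoblasts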
# [5] = HIV-1 AD8 envelope cell-cell fusion blockers – cherry-pick, dose response (AID 652062); assay type: functional, cell-based;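 note: luciferase signal from cell-cell fusion driven by HIV-1 clade B AD8 Env; potency is for inhibitors of fusion seen as a drop in luminescence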
# [6] = non-specific 3'UTR reporter inhibition in Clone20-Shn3RL – cell-based, Renilla luciferase, cherry-picked, counter-screen for Shn3 inhibitor project, dose response (AID 624133); assay type: functional
# [7] = HEK-293T viability loss after treatment – luminescence, T-cell screen hits, cytotoxicity control for TCR NF-kB inhibitor project, dose response (AID 489026); assay type: functional, cell-based;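 note: cells exposed to compound about 14 hours before the viability readout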
# [8] = biological target: T1, Short transient receptor potential channel 4 (Mus musculus, UniProt Q9QUQ5); assay: calcium entry via TRPC4 opening agents – cell-based, HEK293 TRPC4/mu-opioid, Fluo-4 calcium, dose response (AID 434937); assay type: functional
# T1 sequence (Q9QUQ5 whole entry): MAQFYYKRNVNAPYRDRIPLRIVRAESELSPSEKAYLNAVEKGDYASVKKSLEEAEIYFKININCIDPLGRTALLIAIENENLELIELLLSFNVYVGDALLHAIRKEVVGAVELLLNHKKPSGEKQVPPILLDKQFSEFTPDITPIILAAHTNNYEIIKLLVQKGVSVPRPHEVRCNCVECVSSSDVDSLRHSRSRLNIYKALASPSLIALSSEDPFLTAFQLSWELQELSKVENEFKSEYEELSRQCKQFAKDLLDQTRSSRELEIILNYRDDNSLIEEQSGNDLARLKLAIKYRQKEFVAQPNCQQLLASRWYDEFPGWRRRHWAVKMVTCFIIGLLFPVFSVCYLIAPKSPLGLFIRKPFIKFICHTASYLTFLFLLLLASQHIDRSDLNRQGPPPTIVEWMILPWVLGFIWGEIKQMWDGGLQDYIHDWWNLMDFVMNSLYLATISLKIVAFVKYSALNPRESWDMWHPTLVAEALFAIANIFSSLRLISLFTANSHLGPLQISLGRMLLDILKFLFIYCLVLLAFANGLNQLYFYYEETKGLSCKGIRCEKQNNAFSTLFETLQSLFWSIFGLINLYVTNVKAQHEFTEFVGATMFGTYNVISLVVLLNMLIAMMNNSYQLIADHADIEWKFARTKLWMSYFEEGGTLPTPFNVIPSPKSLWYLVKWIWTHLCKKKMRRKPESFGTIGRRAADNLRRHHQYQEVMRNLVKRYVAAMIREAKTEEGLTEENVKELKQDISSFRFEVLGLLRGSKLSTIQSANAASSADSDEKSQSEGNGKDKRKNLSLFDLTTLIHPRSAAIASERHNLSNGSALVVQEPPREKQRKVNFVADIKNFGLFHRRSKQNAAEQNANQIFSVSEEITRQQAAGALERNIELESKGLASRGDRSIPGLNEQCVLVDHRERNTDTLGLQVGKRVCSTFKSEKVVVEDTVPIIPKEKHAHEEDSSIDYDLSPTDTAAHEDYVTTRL
# [9] = DRD fibroblast viability loss – cell-based, non-viral oncogenic, luminescence, dose response (AID 1934); assay type: functional; details: Homo sapiens
# [10] = tested on: BJ; assay: BJ-TERT-LT-ST fibroblast viability loss – cell-based, RAS-independent, luminescence, dose response (AID 1935); assay type: functional; details: Homo sapiens;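 note: BJ fibroblasts immortalized with TERT plus LT and ST oncogenes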
# [11] = tested on: BJ; assay: BJ-TERT fibroblast viability loss – cell-based, RAS-independent, luminescence, dose response (AID 1933); assay type: functional; details: Homo sapiens
# [12] = tested on: BJ; assay: cells; assay type: functional, cell-based; details: Homo sapiens
# [13] = biological target: T2, Small ubiquitin-related modifier 1 (Homo sapiens, UniProt P63165); assay: SUMO1 protein interaction blockers, potency – biochemical, fluorescence polarization, uHTS hits, dose response (AID 624382); assay type: functional; details: read-out: IC50_Mean
# T2 sequence (P63165 whole entry): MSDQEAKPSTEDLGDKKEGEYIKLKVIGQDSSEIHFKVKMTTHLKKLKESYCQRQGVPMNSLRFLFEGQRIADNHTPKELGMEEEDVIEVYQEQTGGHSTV
# [14] = biological target: T3, Histone-lysine N-methyltransferase NSD2 (Homo sapiens, UniProt O96028); assay type: biochemical
# T3 sequence (O96028 whole entry): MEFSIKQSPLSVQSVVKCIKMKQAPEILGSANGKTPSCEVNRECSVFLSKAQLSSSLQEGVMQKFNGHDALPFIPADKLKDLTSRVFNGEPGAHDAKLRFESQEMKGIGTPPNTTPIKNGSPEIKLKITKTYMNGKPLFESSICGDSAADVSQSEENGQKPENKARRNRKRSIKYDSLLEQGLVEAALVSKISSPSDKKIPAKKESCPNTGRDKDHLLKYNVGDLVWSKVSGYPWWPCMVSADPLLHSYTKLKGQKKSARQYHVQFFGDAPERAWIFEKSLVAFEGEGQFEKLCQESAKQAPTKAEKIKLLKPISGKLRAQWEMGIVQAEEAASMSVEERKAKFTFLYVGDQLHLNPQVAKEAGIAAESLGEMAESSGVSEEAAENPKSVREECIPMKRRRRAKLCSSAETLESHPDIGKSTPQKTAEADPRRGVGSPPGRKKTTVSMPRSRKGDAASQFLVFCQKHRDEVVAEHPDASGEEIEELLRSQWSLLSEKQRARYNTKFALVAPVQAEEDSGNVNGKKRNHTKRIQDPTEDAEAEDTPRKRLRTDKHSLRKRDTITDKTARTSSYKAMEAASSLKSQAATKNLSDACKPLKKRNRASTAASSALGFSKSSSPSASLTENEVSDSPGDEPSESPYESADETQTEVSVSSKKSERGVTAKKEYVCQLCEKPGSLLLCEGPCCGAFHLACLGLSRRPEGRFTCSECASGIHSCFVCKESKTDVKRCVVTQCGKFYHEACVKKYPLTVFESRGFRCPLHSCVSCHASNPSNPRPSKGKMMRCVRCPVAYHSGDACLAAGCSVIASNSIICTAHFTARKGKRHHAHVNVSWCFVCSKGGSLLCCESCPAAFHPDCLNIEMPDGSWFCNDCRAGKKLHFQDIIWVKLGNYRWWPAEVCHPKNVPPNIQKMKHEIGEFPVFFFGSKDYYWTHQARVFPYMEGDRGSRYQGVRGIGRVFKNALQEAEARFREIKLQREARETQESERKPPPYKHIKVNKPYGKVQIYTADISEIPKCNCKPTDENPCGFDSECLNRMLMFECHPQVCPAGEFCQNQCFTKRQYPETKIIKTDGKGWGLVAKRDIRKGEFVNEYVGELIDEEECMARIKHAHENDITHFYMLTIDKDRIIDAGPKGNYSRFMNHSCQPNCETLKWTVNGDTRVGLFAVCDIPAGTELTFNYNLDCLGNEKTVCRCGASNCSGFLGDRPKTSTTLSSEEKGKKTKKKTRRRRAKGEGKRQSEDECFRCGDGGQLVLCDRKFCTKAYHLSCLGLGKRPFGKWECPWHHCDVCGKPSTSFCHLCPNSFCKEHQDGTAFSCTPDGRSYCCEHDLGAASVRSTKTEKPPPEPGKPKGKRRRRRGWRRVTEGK
# [15] = biological target: Large T antigen (Simian virus 40, UniProt P03070); assay type: functional, Betapolyomavirus macacae;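 note: Confirmatory-stage PubChem screen for compounds that inhibit SV40 T antigen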
# Chain of Large T antigen (P03070 whole entry): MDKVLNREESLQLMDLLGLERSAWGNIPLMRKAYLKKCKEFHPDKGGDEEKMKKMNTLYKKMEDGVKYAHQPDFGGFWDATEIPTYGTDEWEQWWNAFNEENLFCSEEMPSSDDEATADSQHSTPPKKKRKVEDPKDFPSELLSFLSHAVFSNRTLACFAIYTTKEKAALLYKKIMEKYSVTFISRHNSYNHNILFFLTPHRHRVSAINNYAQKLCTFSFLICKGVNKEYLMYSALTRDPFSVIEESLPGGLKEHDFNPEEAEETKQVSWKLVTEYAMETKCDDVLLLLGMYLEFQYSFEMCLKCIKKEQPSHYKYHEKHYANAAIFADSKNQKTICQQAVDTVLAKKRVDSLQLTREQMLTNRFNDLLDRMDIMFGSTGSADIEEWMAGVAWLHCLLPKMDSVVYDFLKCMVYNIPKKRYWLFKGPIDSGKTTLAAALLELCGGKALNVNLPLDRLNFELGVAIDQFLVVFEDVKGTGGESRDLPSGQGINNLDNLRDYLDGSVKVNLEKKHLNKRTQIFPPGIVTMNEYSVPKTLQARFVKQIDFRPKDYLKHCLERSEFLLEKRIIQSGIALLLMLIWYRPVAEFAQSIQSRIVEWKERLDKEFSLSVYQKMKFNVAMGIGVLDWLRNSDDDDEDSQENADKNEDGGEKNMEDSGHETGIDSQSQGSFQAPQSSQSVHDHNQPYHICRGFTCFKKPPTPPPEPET
# [16] = biological target: Induced myeloid leukemia cell differentiation protein Mcl-1 (Homo sapiens, UniProt Q07820); assay type: functional
# Chain of Induced myeloid leukemia cell differentiation protein Mcl-1 (Q07820 whole entry): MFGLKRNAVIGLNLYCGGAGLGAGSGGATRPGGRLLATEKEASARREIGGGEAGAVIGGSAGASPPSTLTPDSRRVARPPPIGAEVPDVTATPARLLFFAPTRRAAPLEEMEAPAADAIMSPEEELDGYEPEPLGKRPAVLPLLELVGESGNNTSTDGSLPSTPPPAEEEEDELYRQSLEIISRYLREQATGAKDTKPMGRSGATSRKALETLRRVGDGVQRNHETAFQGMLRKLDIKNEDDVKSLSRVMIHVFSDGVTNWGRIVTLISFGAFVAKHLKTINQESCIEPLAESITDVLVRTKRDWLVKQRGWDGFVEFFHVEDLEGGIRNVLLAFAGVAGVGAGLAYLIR
# [17] = biological target: T4, Protein RecA (Mycobacterium tuberculosis, UniProt P9WHJ3); assay: Fluorescence Cell-Free Homogeneous Dose Retest to Identify Inhibitors of RecA-Intein Splicing Activity. [Related pubchem assays (depositor defined):AID2097, AID2223, AID489010, AID492950]; assay type: functional
# T4 sequence (P9WHJ3 whole entry): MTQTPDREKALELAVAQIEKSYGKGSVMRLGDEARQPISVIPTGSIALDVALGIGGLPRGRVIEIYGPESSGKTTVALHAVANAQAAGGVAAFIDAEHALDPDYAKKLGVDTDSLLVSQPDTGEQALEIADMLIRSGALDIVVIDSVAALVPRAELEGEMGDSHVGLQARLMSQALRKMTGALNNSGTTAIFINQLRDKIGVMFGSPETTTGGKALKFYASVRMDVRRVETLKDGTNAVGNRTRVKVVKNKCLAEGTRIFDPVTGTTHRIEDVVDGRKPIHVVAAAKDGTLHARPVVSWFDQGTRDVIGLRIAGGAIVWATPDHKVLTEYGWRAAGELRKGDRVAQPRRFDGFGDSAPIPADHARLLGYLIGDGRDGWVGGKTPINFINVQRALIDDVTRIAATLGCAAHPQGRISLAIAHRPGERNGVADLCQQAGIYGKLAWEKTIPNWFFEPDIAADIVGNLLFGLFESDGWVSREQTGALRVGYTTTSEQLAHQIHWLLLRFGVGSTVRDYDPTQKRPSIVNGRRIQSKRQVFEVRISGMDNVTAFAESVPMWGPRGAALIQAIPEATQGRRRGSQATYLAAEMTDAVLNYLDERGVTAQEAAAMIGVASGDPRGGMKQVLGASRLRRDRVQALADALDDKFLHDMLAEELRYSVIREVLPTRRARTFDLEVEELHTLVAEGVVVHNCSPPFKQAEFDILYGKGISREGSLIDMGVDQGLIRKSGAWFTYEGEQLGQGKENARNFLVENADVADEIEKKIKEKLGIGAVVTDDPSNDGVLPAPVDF
# [18] = biological target: T5, Replicative DNA helicase DnaB (Mycobacterium tuberculosis, UniProt P9WMR3); assay: DnaB intein splicing inhibitors, dose response, biochemical, cell-free fluorescence (AID 449749); assay type: functional
# T5 sequence (P9WMR3 whole entry): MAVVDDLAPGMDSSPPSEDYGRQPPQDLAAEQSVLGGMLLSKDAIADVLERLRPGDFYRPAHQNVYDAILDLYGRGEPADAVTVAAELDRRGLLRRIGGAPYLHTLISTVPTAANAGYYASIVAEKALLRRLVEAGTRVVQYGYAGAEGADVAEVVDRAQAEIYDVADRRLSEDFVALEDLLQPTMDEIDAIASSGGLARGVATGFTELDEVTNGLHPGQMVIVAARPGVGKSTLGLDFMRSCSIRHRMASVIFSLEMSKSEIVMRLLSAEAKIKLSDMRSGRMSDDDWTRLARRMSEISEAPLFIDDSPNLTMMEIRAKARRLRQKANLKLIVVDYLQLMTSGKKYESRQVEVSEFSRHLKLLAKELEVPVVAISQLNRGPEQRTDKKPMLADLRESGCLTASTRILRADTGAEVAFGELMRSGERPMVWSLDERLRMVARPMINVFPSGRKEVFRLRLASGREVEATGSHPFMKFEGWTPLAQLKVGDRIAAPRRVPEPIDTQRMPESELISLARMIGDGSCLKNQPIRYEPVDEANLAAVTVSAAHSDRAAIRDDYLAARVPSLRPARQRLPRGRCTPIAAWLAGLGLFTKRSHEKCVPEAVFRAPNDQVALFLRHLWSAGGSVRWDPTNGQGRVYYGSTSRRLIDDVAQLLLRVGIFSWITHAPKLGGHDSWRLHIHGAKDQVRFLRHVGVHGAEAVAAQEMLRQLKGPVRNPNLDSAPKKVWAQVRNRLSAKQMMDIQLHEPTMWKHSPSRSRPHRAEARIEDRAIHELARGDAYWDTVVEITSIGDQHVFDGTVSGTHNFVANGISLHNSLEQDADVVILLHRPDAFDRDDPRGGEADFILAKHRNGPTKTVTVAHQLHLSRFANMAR
# [19] = biological target: T2, Small ubiquitin-related modifier 1; assay: SUMO1 protein-protein binding blockers, potency – biochemical, FRET, dose response (AID 624383); assay type: functional; details: read-out: IC50_Mean
# Chain of DNA dC->dU-editing enzyme APOBEC-3G (Q9HC16 whole entry): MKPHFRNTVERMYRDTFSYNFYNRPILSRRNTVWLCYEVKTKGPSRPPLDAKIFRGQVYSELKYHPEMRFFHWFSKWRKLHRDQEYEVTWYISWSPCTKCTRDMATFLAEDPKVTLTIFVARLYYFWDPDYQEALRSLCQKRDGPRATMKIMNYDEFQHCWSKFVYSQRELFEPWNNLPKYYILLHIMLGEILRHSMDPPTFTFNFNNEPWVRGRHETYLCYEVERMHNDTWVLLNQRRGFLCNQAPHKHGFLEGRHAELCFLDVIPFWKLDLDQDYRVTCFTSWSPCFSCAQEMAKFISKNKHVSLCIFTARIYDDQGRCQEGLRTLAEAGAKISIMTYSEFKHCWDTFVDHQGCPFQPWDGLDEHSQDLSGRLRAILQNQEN
smiles,measurement,setting,value
CCCc1nc2sc3c(SCC(=O)NCc4ccco4)ncnc3c2c2c1CCC2,IC50,[1],25.3 µM (active)
same,IC50,[2],15.8 µM (active)
O=C(Nc1ccc(S(=O)(=O)N2CCN(Cc3ccccc3)CC2)cc1)c1cnccn1,AC50,[3],< 0.26 µM (active)
same,AC50,[4],1.65 µM (active)
same,AC50,[5],4.9 µM (active)
same,AC50,[6],4.15 µM (active)
same,IC50,[7],> 80 µM (inactive)
O=C(O)Cc1ccc(S(=O)(=O)N2CCCC2)s1,IC50,[1],66.5 µM (active)
same,IC50,[2],17.4 µM (active)
COc1ccc2c(/C=C/c3cc[n+](C)cc3)c[nH]c2c1,IC50,[1],6.31 µM (active)
same,IC50,[2],6.12 µM (active)
COc1cc(C)c(NC(=O)C2CCN(S(=O)(=O)c3cccs3)CC2)cc1OC,IC50,[1],13.9 µM (active)
same,IC50,[2],12 µM (active)
CCOC(=O)C1(CCOc2ccccc2)CCN(Cc2ccc(OC)c(O)c2)CC1,EC50,[8],0.473 µM (active)
CCc1cc2c(s1)N1Cc3ccccc3C(C(=O)c3cccc([N+](=O)[O-])c3)=C1NC2=O,EC50,[9],> 150 µM (not active)
same,EC50,[10],> 150 µM (inconclusive)
same,EC50,[11],> 150 µM (not active)
same,IC50,[7],> 80 µM (inactive)
same,EC50,[12],> 150 µM (not active)
CN1C(=O)/C(=C/c2ccc(-c3ccccc3[N+](=O)[O-])o2)S/C1=N\c1ccc(Cl)c(C(=O)O)c1,IC50,[13],> 66.6 µM (inactive)
same,AC50,[14],4.58 µM (active)
same,IC50,[15],52.8 µM (active)
same,IC50,[16],14 µM (active)
same,EC50,[17],5.51 µM (active)
same,AC50,[18],10.6 µM (active)
same,IC50,[19],17.7 µM (active)
CC(=Nc1cc(C)cc(C)c1)N(C)CCNS(=O)(=O)c1ccc(Cl)cc1,IC50,[1],4.92 µM (active)
same,IC50,[2],2.67 µM (active)

# Source: ChEMBL document CHEMBL1201862, “PubChem BioAssay data set” (2004)
